The values that follow come from ChEMBL document CHEMBL1201862, “PubChem BioAssay data set” (2004).

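Grown in 96-well plates, cells were treated for 48 hours with each compound at five concentrations. Insufficient inhibition: endpoint recorded as highest concentration tested. GI50: concentration for 50% inhibition of growth.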 The source made the active and inactive calls. Rule as the data show it: active = GI50 up to about 1.1 µM and inactive = higher. A value given as a limit tells only on which side of the number the result lay.

Some test systems named below: SK-MEL-28; SK-OV-3; T47D; NCI-H460; TK-10; MOLT-4; M14; OVCAR-3; LOX IMVI; HCT-15; A498; CCRF-CEM; MDA-MB-435; KM12; SK-MEL-5; SF-268; COLO 205; K562; UACC-62; RPMI-8226.
Common to all, as to test: inhibition of tumour cell growth, NCI panel, 48 h

With `CC(C)(C)OC(=O)Cn1ncn(NC(=O)Cc2ccccc2)c1=S`, the GI50 with SK-MEL-28, in the assay with SK-OV-3, in the assay on T47D, in the assay on NCI-H460, with TK-10 and in the assay on MOLT-4 was > 10 µM (inactive) each time. Moreover, the GI50 with M14 is > 10 µM (inactive); in the assay with OVCAR-3 it was > 10 µM (inactive); in the assay with LOX IMVI it was > 10 µM (inactive); in the assay with HCT-15 it was over 10 µM; with A498, > 10 µM (inactive); in the assay with CCRF-CEM it was > 10 µM (inactive). In addition, the GI50 in the assay on MDA-MB-435, in the assay on KM12, in the assay on SK-MEL-5, in the assay on SF-268, in the assay on COLO 205 and with K562 was > 10 µM (inactive) in each case. Also, in the assay on UACC-62, the GI50 was > 10 µM (inactive).
On to `Cc1cccc(Cl)c1NCC(O)CN1CCN(C)CC1` (centres undefined), for which the GI50 in the assay with SK-MEL-28, with T47D, in the assay on NCI-H460, with TK-10, with MOLT-4 and with M14 was > 100 µM (inactive) in each case. Moreover, the GI50 is > 100 µM (inactive) with OVCAR-3; > 100 µM (inactive) in the assay on LOX IMVI; over 100 µM with HCT-15; > 100 µM (inactive) with A498; > 100 µM (inactive) in the assay with CCRF-CEM; > 100 µM (inactive) in the assay with MDA-MB-435. Moreover, the GI50 with KM12, in the assay on SK-MEL-5, with SF-268, with K562 and with UACC-62 was > 100 µM (inactive) throughout.
Regarding `CCOC(=O)C1(F)S(=O)(=O)OCCOS1(=O)=O`, the GI50 in the assay with SK-MEL-28, in the assay on SK-OV-3, with T47D, with TK-10, in the assay on MOLT-4 and in the assay with M14 was > 100 µM (inactive) throughout. For the same compound, the GI50 with OVCAR-3 is > 100 µM (inactive); with LOX IMVI, > 100 µM (inactive); in the assay on RPMI-8226, > 100 µM (inactive); in the assay on HCT-15 it was over 100 µM; with MDA-MB-435, > 100 µM (inactive); with KM12, > 100 µM (inactive). Further, the GI50 with SK-MEL-5, with SF-268, with COLO 205 and in the assay with UACC-62 was > 100 µM (inactive) throughout.
Regarding `CCOC(=O)C1C(c2ccc(O)c(OC)c2)c2c(n[nH]c2O)CC1(C)O` (centres undefined), the GI50 in the assay on SK-MEL-28 is > 100 µM (inactive); with T47D it was > 100 µM (inactive); with NCI-H460, > 10 µM (inactive); in the assay with TK-10 it was > 100 µM (inactive); with MOLT-4, > 100 µM (inactive); in the assay with M14, > 100 µM (inactive). For the same compound, the GI50 is > 100 µM (inactive) in the assay with OVCAR-3; > 100 µM (inactive) with LOX IMVI; > 100 µM (inactive) in the assay with RPMI-8226; over 100 µM in the assay on HCT-15; > 100 µM (inactive) with A498; > 100 µM (inactive) in the assay on CCRF-CEM. For the same compound, the GI50 in the assay with MDA-MB-435, in the assay with KM12, in the assay on SK-MEL-5, in the assay on SF-268, in the assay on COLO 205 and in the assay with UACC-62 was > 100 µM (inactive) each time.
`COc1cccc(N2C(=O)CS(=O)(=O)C2c2cccc(Oc3ccccc3)c2)c1` (centres undefined): the GI50 in the assay on SK-MEL-28 was 34 µM (inactive); in the assay on SK-OV-3 it was 38 µM (inactive); in the assay with T47D, 19.1 µM (inactive); in the assay with NCI-H460, 13.6 µM (inactive); with TK-10 it was 16.5 µM (inactive); with MOLT-4 it was 21.3 µM (inactive). Further, the GI50 in the assay with M14 is 15.4 µM (inactive); in the assay with OVCAR-3, 19.5 µM (inactive); with LOX IMVI it was 17.1 µM (inactive); in the assay with HCT-15, 5.27 µM; in the assay with A498 it was 10.1 µM (inactive); in the assay on CCRF-CEM, 26.9 µM (inactive). For the same compound, the GI50 is 3.56 µM (inactive) with MDA-MB-435; 7.67 µM (inactive) in the assay on KM12; 7.11 µM (inactive) with SK-MEL-5; 24.4 µM (inactive) in the assay with SF-268; 6 µM (inactive) in the assay on COLO 205; 3.6 µM (inactive) with K562. In the assay on UACC-62, the GI50 is 6.1 µM (inactive).
On to `O=c1[nH]nc(-c2cccc(Br)c2)[nH]1`, for which the GI50 in the assay with SK-MEL-28, in the assay with T47D, with NCI-H460, with TK-10, with MOLT-4 and with M14 was > 100 µM (inactive) each time. The GI50 with OVCAR-3 is > 100 µM (inactive); with LOX IMVI, > 100 µM (inactive); with RPMI-8226, > 100 µM (inactive); in the assay with HCT-15, over 100 µM; in the assay with A498, > 100 µM (inactive); with CCRF-CEM, > 100 µM (inactive). Moreover, the GI50 in the assay on MDA-MB-435, with KM12, in the assay with SK-MEL-5, in the assay on SF-268, in the assay on COLO 205 and in the assay on K562 was > 100 µM (inactive) in each case. Also, the GI50 in the assay with UACC-62 is > 100 µM (inactive).
In the case of `S=c1[nH]c2ccc(Br)cc2c(=S)s1`, the GI50 with SK-MEL-28 was 52.7 µM (inactive); in the assay with SK-OV-3, 30 µM (inactive); in the assay with T47D, 22.5 µM (inactive); with NCI-H460, 22.1 µM (inactive); with TK-10 it was 32.9 µM (inactive); in the assay with MOLT-4, 29.9 µM (inactive). Further, the GI50 was 30.5 µM (inactive) in the assay on M14; 26.5 µM (inactive) with OVCAR-3; 32.4 µM (inactive) in the assay with LOX IMVI; 29.2 µM (inactive) in the assay with RPMI-8226; 29.5 µM with HCT-15; 30.8 µM (inactive) in the assay on CCRF-CEM. Also, the GI50 was 23.2 µM (inactive) in the assay on MDA-MB-435; 29.4 µM (inactive) with KM12; 16.5 µM (inactive) in the assay on SK-MEL-5; 34.4 µM (inactive) in the assay with SF-268; 16.4 µM (inactive) in the assay on COLO 205; 29.6 µM (inactive) with K562. The GI50 with UACC-62 was 18 µM (inactive).
As for `Cn1cc(NC(=O)Nc2cc(C(=O)Nc3cc(C(=O)Nc4cc(S(=O)(=O)O)c5cc(S(=O)(=O)O)cc(S(=O)(=O)O)c5c4)n(C)c3)n(C)c2)cc1C(=O)Nc1cc(C(=O)Nc2cc(S(=O)(=O)O)c3cc(S(=O)(=O)O)cc(S(=O)(=O)O)c3c2)n(C)c1`, the GI50 in the assay on SK-MEL-28 is > 100 µM (inactive); with SK-OV-3, > 100 µM (inactive); in the assay on T47D, > 100 µM (inactive); in the assay with NCI-H460, > 100 µM (inactive); with TK-10, 87.1 µM (inactive); with MOLT-4 it was > 100 µM (inactive). For the same compound, the GI50 in the assay with M14 was > 100 µM (inactive); in the assay on OVCAR-3 it was > 100 µM (inactive); with RPMI-8226 it was > 100 µM (inactive); in the assay on HCT-15, over 100 µM; in the assay on CCRF-CEM, > 100 µM (inactive); with MDA-MB-435, > 100 µM (inactive). The GI50 in the assay with KM12, in the assay with SK-MEL-5, with SF-268, in the assay on COLO 205, in the assay on K562 and in the assay on UACC-62 was > 100 µM (inactive) throughout.
For the compound `Cc1cc(=O)[nH]c2cc(NC(=O)C(C)NC(=O)C(C)NC(=O)C(C)NC(=O)OC(C)(C)C)ccc12` (centres undefined), the GI50 in the assay with SK-MEL-28, in the assay on T47D, in the assay with NCI-H460, in the assay with TK-10, in the assay with MOLT-4 and in the assay with M14 was > 15 µM (inactive) each time. The GI50 was > 15 µM (inactive) with LOX IMVI; over 15 µM in the assay on HCT-15; > 15 µM (inactive) in the assay with A498; > 15 µM (inactive) with CCRF-CEM; > 15 µM (inactive) in the assay with MDA-MB-435; > 15 µM (inactive) in the assay with KM12. Moreover, the GI50 in the assay on SK-MEL-5, with SF-268, with COLO 205, with K562 and in the assay with UACC-62 was > 15 µM (inactive) in each case.
`O=[N+]([O-])c1ccc(/C(=N/c2ccccc2)SS/C(=N\c2ccccc2)c2ccc([N+](=O)[O-])o2)o1`: the GI50 with SK-MEL-28 was 2.4 µM (inactive); in the assay with SK-OV-3, 3.86 µM (inactive); with T47D, 2.2 µM (inactive); in the assay on NCI-H460 it was 1.33 µM (inactive); in the assay with TK-10, 3.13 µM (inactive); in the assay with MOLT-4 it was 2.51 µM (inactive). Also, the GI50 is 1.98 µM (inactive) in the assay with M14; 1.53 µM (inactive) with OVCAR-3; 1.49 µM (inactive) with LOX IMVI; 0.552 µM with HCT-15; 2.03 µM (inactive) in the assay on CCRF-CEM; 2.1 µM (inactive) in the assay with MDA-MB-435. The GI50 in the assay with KM12 is 1.68 µM (inactive); in the assay on SK-MEL-5 it was 5.78 µM (inactive); in the assay on SF-268, 1.8 µM (inactive); in the assay on COLO 205, 1.51 µM (inactive); with K562 it was 1.34 µM (inactive); in the assay on UACC-62, 1.61 µM (inactive).
For `Cc1cc(C)c(S(=O)(=O)N2CCCN(S(=O)(=O)c3c(C)cc(C)cc3C)OCCCO2)c(C)c1`, the GI50 in the assay with SK-MEL-28 is > 100 µM (inactive); in the assay on SK-OV-3, > 100 µM (inactive); in the assay on T47D, 63.5 µM (inactive); with NCI-H460, > 100 µM (inactive); with TK-10, > 100 µM (inactive); with MOLT-4, > 100 µM (inactive). The GI50 in the assay with M14 is > 100 µM (inactive); in the assay with OVCAR-3 it was > 100 µM (inactive); in the assay with LOX IMVI, > 100 µM (inactive); in the assay with HCT-15, over 100 µM; in the assay on A498, > 100 µM (inactive); in the assay on CCRF-CEM, > 100 µM (inactive). For the same compound, the GI50 in the assay with MDA-MB-435, in the assay on KM12, with SK-MEL-5, in the assay on SF-268, in the assay with COLO 205 and in the assay with K562 was > 100 µM (inactive) each time. The GI50 with UACC-62 was > 100 µM (inactive).
